Reference: US12629319B2, “Injection apparatus and method of use” (MOBIUS THERAPEUTICS, INC., priority 2020, dated 2026)

Test system: Glaucoma patients
Experiment: Clinical study: subtenon injection of MMC versus MMC-soaked sponges in trabeculectomy
Protocol: A clinical study was set up to compare the efficacy and safety of subtenon injection of mitomycin C (MMC) using the instant injection system and kits, with that of conventional application of MMC-soaked sponges in trabeculectomy. Glaucoma patients were randomized into two groups; group 1 received a subtenon injection of 0.1 mL of 0.01% MMC by the second sterile syringe, while group 2 received 0.02% MMC-soaked Weck-Cel® sponges to physically disperse the MMC. The injection was placed in the far posterior fornix on a 30-gauge needle prior to the conjunctival peritomy for trabeculectomy. Primary outcome measure is intraocular pressure (IOP), and secondary outcome measures are endothelial cell count (ECC) changes and bleb morphology according to the Indiana Bleb Appearance Grading Scale. Outcome measures were compared at 1, 3 and 6 months postoperatively. Complete and qualified success was defined as IOP within 6-15 mm Hg without and with medications at month 6, respectively.
Data was to be presented in the form of mean, SD, median and range, frequency and percentage values. Normal distribution of data was assessed by Kolmogrov-Smirnov test and Q-Q plot. To evaluate differences between the study groups, χ2, t-test and Mann-Whitney tests. Wilcoxon singed-rank test and the linear mixed model were used to assess changes within the study groups. The Wilcoxon singed-rank test is followed by Bonferroni correction to consider multiple comparisons. To compare the groups adjusted for baseline values, analysis of covariance and Poisson regression (based on the type of response) were used. All statistical analyses were performed using SPSS software (IBM SPSS Statistics for Windows, V. 23.0, Released 2014, IBM, Armonk, New York, USA). All tests were two-sided and p values less than 0.05 were considered statistically significant.

Question: With `CO[C@@]12[C@H](COC(N)=O)C3=C(C(=O)C(C)=C(N)C3=O)N1C[C@@H]1N[C@@H]12` [MMC, mitomycin C] as the compound, how does the “dependence on glaucoma medications” value (MMC injection compared to cellulose sponge delivery, trabeculectomy) read?
Answer: decreased

Question: What about the “bleb morphology (Indiana Bleb Appearance Grading Scale)” value (MMC injection compared to trabeculectomies performed with sponges) of the same compound?
Answer: more favorable

Question: What about the “overall study conclusion for MMC injection versus sponge delivery” value (MMC injection through the instant apparatus and kits) of the same compound?
Answer: non-inferiority with improved predictability

Question: What about the “intraocular pressure (IOP)” value (subtenon injection of 0.1 mL of 0.01% MMC compared to 0.02% MMC-soaked cellulose sponges, trabeculectomy, 1, 3 and 6 months postoperatively) of the same compound?
Answer: lower
